Measured values reported in patent US8129527B2, “Analogs of dehydrophenylahistins and their therapeutic use” (Nereus Pharmacuticals, Inc., priority 2006, dated 2012).
Read-outs that look alike come from different tables or passages of the source.

Assays:
HT-29 human colon cells = test: Tumor cytotoxicity assay, resazurin fluorescence, 48 h (Example 6); assay type: cell-based; settings: Example 23
[1] = system: bovine brain microtubule protein; test: Tubulin polymerization assay, turbidity (Example 21); assay type: biochemical; settings: 5 μM in 1% DMSO
Protocol: Polymerization of bovine brain microtubule protein (Cytoskeleton, Inc., Denver, Colo.) was monitored by an increase in turbidity at 37° C. in microtubule buffer (80 mM PIPES, pH 6.8, 1 mM MgCl2, 1 mM EGTA, 1 mM GTP, 10% glycerol). […] Turbidity was measured as an increase in optical density at 340 nm with a thermo-controlled spectrophotometer (model 680XR microplate Reader™, Bio-Rad Laboratories).

tubulin = tubulin (Bos taurus, UniProt Q6B856); test: Photoaffinity labeling study of tubulin; assay type: binding; settings: UV 365 nm, +/- colchicine
tubulin, sequence (Q6B856 whole entry): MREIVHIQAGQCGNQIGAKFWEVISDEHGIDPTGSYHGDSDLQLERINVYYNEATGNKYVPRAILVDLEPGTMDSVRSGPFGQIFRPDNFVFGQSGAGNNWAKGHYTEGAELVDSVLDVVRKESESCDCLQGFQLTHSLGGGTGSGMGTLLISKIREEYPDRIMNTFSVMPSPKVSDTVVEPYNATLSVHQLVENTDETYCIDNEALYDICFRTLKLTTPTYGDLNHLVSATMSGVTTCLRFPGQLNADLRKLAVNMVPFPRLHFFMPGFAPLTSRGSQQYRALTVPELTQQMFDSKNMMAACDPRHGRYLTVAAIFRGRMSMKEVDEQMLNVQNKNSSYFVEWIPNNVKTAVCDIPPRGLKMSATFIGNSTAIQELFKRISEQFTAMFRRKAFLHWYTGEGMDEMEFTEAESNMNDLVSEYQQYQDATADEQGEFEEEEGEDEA
tubulin, sequence (P81947 whole entry, further chain): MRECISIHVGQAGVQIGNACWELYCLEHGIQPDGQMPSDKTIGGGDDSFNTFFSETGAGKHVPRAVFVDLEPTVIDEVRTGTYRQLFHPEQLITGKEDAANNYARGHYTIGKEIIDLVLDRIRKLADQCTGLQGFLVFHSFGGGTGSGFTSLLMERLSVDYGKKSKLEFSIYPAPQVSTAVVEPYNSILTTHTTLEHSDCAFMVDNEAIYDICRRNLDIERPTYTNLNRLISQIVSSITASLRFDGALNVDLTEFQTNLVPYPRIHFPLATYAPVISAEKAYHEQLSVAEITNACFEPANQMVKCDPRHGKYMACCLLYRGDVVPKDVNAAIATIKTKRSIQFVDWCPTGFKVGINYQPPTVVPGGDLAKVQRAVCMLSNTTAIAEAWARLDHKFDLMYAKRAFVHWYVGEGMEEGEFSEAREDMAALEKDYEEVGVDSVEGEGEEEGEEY
Description: KPU-244 and KPU-244-B1 can both be photoactivated by UV light, resulting in covalent linkage to any protein via the photoreactive benzophenone group. In one embodiment, tubulin is photoaffinity labeled with KPU-244 or KPU-244-B1. Upon irradiation with UV light, the benzophenone group forms a free radical at the carbonyl group, followed by H-abstraction in the acceptor protein, insertion of the benzophenone radical into the abstracted site, and recombination to form the labeled protein.
UV-irradiated and control samples were visualized by 15% SDS-PAGE followed by Western blotting. Biotin-labeled molecular weight markers (Amersham Pharmacia Biotech) were included in each gel. Each gel was electroblotted onto a nitrocellulose membrane (Hybond-ECL, Amersham Pharmacia). The gels were then stained with Coomassie Brilliant Blue (Bio-Rad laboratories) to verify that equivalent amounts of tubulin were loaded in each lane. The nitrocellulose membrane was incubated with 5% skim milk in 100 mM phosphate-buffered saline (PBS, pH 7.4) at room temperature for 1 hour, then washed with 100 mM PBS (pH 7.4) containing 0.1% Tween 20 (PBS-T) for 20 min one time, then twice for 10 min each. The membrane was then incubated with streptavidin-horseradish peroxidase conjugate (diluted 1000-fold with PBS-T) for 1 hour at room temperature, and washed with PBS-T as described above. […]

HT-29 human colon tumor = test: HT-29 Human Colon Tumor Xenograft Model; assay type: in vivo
Protocol: (§1) Selected novel compounds were administered as monotherapy via the intraperitoneal (i.p.) route at the doses indicated for the individual study; for the combination studies the selected reference chemotherapy agents were injected 15-30 min prior to the compound.
(§2) Saline dilutions are used to achieve the injection concentrations used for the reference compounds.
Animals were implanted subcutaneously (s.c.) by trocar with fragments of HT-29 tumors harvested from s.c. growing tumors in nude mice hosts. When the tumor size reached 5 mm×5 mm (about 10-17 days) the animals were matched into treatment and control groups. Mice were weighed twice weekly and tumor measurements were obtained using calipers twice weekly, starting on Day 1. The tumor measurements were converted to estimated mg tumor weight using the formula (W^2×L)/2. When the estimated tumor weight of the control group reached an average of 1000 mg the mice were weighed, sacrificed and the tumor removed.

MCF-7 human breast tumor = test: MCF-7 Human Breast Tumor Xenograft Model; assay type: in vivo, nude mice; settings: Breast MCF-7 (2 studies); KPU-02 7.5 mg/kg ip qdx5 + Taxotere Days 1, 3, 5
Protocol: (§3) Animals used were (exceptions are indicated for individual studies): female nude mice (nu/nu) between 5 and 6 weeks of age (˜20 g, Harlan); group size was 9-10 mice per group unless otherwise indicated.
as §1, §2
Female nude mice (˜20 g) were implanted s.c. with 21-day release estrogen (0.25 mg) pellets 24 hours prior to the s.c. implantation with MCF-7 tumor fragments (harvested from s.c. tumors in nude mice hosts). The study then proceeded as described for the HT-29 model, using taxotere as the standard chemotherapy agent.
In this model unless otherwise noted for the individual study, the novel compounds were injected via the intraperitoneal route daily on Days 1-5, inclusive (qdx5); taxotere was administered intravenously on Days 1, 3 and 5 (qodx3).
The doses of the compounds were administered on Days 1, 2, 3, 4, and 7; Taxotere was administered on Days 1, 3 and 7.

[2] = system: A549 human non small cell lung tumor; test: A549 Human Lung Tumor Xenograft Model; assay type: in vivo, nude mice; settings: Lung A549 (1 study); KPU-02 7.5 mg/kg ip qdx5 + Taxotere Days 1, 3, 5
Protocol: as §3, §1, §2
Animals were implanted s.c. by trocar with fragments of A549 tumors harvested from s.c. growing tumors in nude mice hosts. When the tumor size reached 5 mm×5 mm (about 10-17 days) the animals were matched into treatment and control groups.

[3] = system: MDA-231 human breast tumor; test: MDA-231 Human Breast Tumor Orthotopic Xenograft Model (mammary fat pad); assay type: in vivo, nude mice; settings: Breast MDA-231 (1 study); KPU-02 7.5 mg/kg ip Days 1, 4, 8, 11, 15 + Paclitaxel qdx5
Protocol: The animals used were: female nude mice (nu/ni) (MDA-231 study) or B6D2F1 (B16-F10 studies) mice between 5 and 6 weeks of age (˜20 g, Harlan); group size was 10 mice per group unless otherwise indicated.
The cell lines used were: MDA-MB-231 human breast tumor and B16-F10 murine melanoma cells.
NPI compounds were administered as monotherapy via the intraperitoneal route at the doses indicated for the individual study; for the combination studies the selected reference chemotherapy agents were injected 15-30 min prior to the NPI compound.
Female nude mice were injected in the mammary fat pad with 2×10^6 MDA-231 cells harvested from in vitro cell culture. When the tumor size reached 5 mm×5 mm (about 14-28 days) the animals were matched into treatment and control groups. The study then proceeded as described for the HT-29 model, using paclitaxel as the standard chemotherapy agent.
In this model unless otherwise noted for the individual study, the test compounds were administered via the intraperitoneal route on Days 1, 4, 8, 11 and 15 (q3dx5); paclitaxel was administered via the intraperitoneal route on Days 1-5 (qdx5).
This model involves the placement of the human tumor tissue into the mouse mammary fat pad, a surrogate of the natural environment. In this manner the possibility of a positive effect due to a specific action on the subcutaneous vascular bed is avoided.

[4] = system: N202 mammary tumor vasculature; test: Murine syngeneic pseudo-orthotopic breast cancer model, dorsal skinfold chamber
Description: A murine syngeneic “pseudo-orthotopic” breast cancer model was used to address these issues. […] To create the “pseudo-orthotopic milieu,” the coverslip of a dorsal skinflap chamber was removed and small pieces of mammary fatpad from donor mice were implanted into the chamber. On top of the fatpad graft, tumor spheroids containing N202 mammary tumor cells transduced with Histone (H2B)-green fluorescent protein (GFP) were applied. The use of H2B-GFP transduced cells allows for visualizing tumor growth and monitoring mitosis and apoptosis.
Fluorescence video microscopy allows for the relatively non-invasive study of tumor microcirculation in conscious mice.
Tumor area, blood flow rate, and vascular density within and surrounding the tumor were visualized. Real-time observations were recorded at various time-points using still photos and video microscopy.

HuVEC cells = test: Tubulin staining assay, 200 nM, 30 min (Example 15); assay type: cell-based, human
Protocol: Human umbilical vein endothelial cells (HuVECs; Cambrex CC2519A) were maintained at subconfluent densities in EGM-2 (Cambrex) media. […] For tubulin staining assays, HuVEC cells were seeded at a density of 3×10^4 cells/ml in EGM-2 on tissue culture compatible coverslips (Fisher). The plates were returned to the incubator for 2 days.
Stock (20 mM) solutions of the test compounds were prepared in 100% DMSO. 400× concentrated dilutions of the compounds were prepared in 100% DMSO. 5 μl volumes of the dilutions were added to individual wells resulting in a final concentration of 200 nM. […] The plates were returned to the incubator for 30 minutes.
The cells were rinsed in dPBS before fixation in 10% (v/v) neutral buffered formalin for 10 minutes at room temperature. Following fixation, α-tubulin was visualized by indirect immunofluorescence. Specifically, the cells were permeabilized in 0.2% (v/v) triton X-100/dPBS for 10 minutes. The cells were washed prior to transferring the coverslips to a humidified chamber, the coverslips were blocked for two hours in antibody buffer (2% (w/v) BSA/0.1% (v/v) Tween 20/dPBS). The coverslips were incubated with 50 μl of 0.1 μg/ml mouse α-tubulin (Molecular Probes) in antibody buffer for 1 hour before washing and incubation with 50 μl of 1 μg/ml goat anti-mouse FITC (Jackson ImmunoResearch Laboratories) for one hour in the dark. […]

P22 rat sarcoma [5] = assay type: in vivo, rats; settings: 15 mg/kg IP
Protocol: In contrast, blood flow in non-tumor tissues was affected to a much lesser extent at 1 hour (see FIG. 35).

MAP-rich microtubules = test: Microtubule mean length distributions, transmission electron microscopy; assay type: biochemical, bovine; settings: in words
Protocol: Transmission electron microscopy was used to determine the mean length distribution of microtubules in the absence or presence of tested agent. At 75 minutes and prior to sedimentation, 10 μl aliquots from the polymer mass experiments were fixed by dilution into 290 μl PEM100-buffered 0.2% glutaraldehyde. Thirty microliters of fixed sample was settled onto formvar-coated 150 ICG mesh electron microscope grids for 90 seconds. Excess sample was wicked off with Whatman filter paper. Thirty microliters of cytochrome C (1 mg/ml) was applied for 30 seconds to enhance protofilament resolution and facilitate negative staining. Uranyl acetate (1.5%) was applied for 20 seconds and the excess was wicked off Grids were viewed in a Jeol electron microscope-1200 EX11 at 2000× and 30,000× magnification. The Zeiss MOPIII was used to determine microtubule length distributions and mean lengths for at least 100 microtubules per sample.

MCF7 cells = test: Immunofluorescence microscopy of spindle and interphase microtubules; assay type: cell-based, human; settings: at the IC50 for mitotic block, 20 hours
Protocol: MCF7 human breast carcinoma cells (American Type Culture Collection, Manassas, Va.) stably transfected with GFP-alpha-tubulin (Clontech, Palo Alto, Calif.) were cultured in Dulbecco's modified Eagle's medium supplemented with 5% fetal bovine serum, 0.1% penicillin/streptomycin and nonessential amino acids (Sigma) in 250-ml tissue culture flasks or 35-mm six-well plates (doubling time, 29 hours) at 37° C. in 5% CO2.
Cells were prepared as for mitotic progression, except that cells were seeded onto poly-L-lysine (50 μg/ml, Sigma) treated coverslips. On the day of staining, cells were rinsed in PBS and fixed in 10% formalin overnight at 37° C. Cells were rinsed in PBS, permeabilized in methanol at −20° C., and hydrated with PBS. Coverslips were treated with 20% normal goat serum in PBS/BSA (1%) for 1 h at room temperature. Cells were incubated in a mouse monoclonal cocktail of anti-alpha- and beta-tubulin, DM1A/DM1B diluted in PBS/BSA for 1 hour at room temperature, then stained with FITC-conjugated secondary antibody and DAPI. Coverslips were mounted using Prolong antifade media (Molecular Probes, Eugene Oreg.).

[6] = system: MCF7 cells, GFP-alpha-tubulin; test: Analysis of microtubule dynamics, time-lapse microscopy; assay type: cell-based, human; settings: concentrations effecting 25% or 50% of maximal mitotic block
P22 rat sarcoma [7] = test: Tumor necrosis in the P22 rat sarcoma model; settings: 7.5 and 15 mg/kg IP, 24 hours post-dose

| Structure (SMILES) | IC50 (HT-29 human colon cells) | tubulin polymerization [1] | binding to tubulin by photoaffinity labeling (tubulin) | Tumor Regression (#/total) NPI + Reference (HT-29 human colon tumor; ip, 7.5 mg/kg) | dose-dependent effect in the HT-29 model (HT-29 human colon tumor; with CPT-11) | Tumor Regression (#/total) NPI + Reference (MCF-7 human breast tumor) | Tumor Growth Inhibition (%) KPU-02 + Reference [2] | Tumor Regression (#/total) NPI + Reference [2] | Tumor Growth Inhibition (%) KPU-02 + Reference [3] | Tumor Regression (#/total) NPI + Reference [3] | tolerability ([4]; i.v. infusion 5-10 mg/kg) | effect on tumor vasculature ([4]; single i.v. treatment) | tubulin depolymerization in HuVEC cells (HuVEC cells) | tumor blood flow (P22 rat sarcoma [5]; 1 hour after administration) | tumor blood flow (P22 rat sarcoma [5]; 24 hours later) | MT nucleation (MAP-rich microtubules) | mitotic cells containing asters or foci of tubulin (MCF7 cells) | MT dynamic instability [6] | tumor necrosis (P22 rat sarcoma [7]) |
| --- | --- | --- | --- | --- | --- | --- | --- | --- | --- | --- | --- | --- | --- | --- | --- | --- | --- | --- | --- |
| CC(C)(C)c1ocnc1/C=c1\[nH]c(=O)/c(=C/c2cccc(C(=O)c3ccc(CNC(=O)CCCC[C@@H]4SC[C@@H]5NC(=O)N[C@@H]54)cc3)c2)[nH]c1=O [KPU-244-B1] | 910 nM | inhibit tubulin polymerization | selectively binds and covalently reacts with tubulin at the colchicine binding site |  |  |  |  |  |  |  |  |  |  |  |  |  |  |  |  |
| CC(C)(C)c1[nH]cnc1/C=c1\[nH]c(=O)/c(=C/c2ccccc2)[nH]c1=O [KPU-02] |  |  |  | 4/30 | 7.5 mg/kg was statistically greater than 2.5 mg/kg | 3/20 | 74% | 0/10 | 71% | 0/10 | well tolerated | rapid collapse of the central vasculature | rapidly induce tubulin depolymerization | 23 % of vehicle | 59 % vehicle | did not affect MT nucleation | 75% | did not have a measurable effect on MT dynamic instability | dose-dependent tumor necrosis |
